Experiments:
[1] = biological target: T1, MT2 receptor (Homo sapiens, UniProt P49286); test: MT2 receptor binding assay ([3H]‐melatonin competition); conditions: mean ± SEM, three independent experiments
T1 construct: purchased Perkin‐Elmer ES‐621
T1 sequence (P49286 1-362): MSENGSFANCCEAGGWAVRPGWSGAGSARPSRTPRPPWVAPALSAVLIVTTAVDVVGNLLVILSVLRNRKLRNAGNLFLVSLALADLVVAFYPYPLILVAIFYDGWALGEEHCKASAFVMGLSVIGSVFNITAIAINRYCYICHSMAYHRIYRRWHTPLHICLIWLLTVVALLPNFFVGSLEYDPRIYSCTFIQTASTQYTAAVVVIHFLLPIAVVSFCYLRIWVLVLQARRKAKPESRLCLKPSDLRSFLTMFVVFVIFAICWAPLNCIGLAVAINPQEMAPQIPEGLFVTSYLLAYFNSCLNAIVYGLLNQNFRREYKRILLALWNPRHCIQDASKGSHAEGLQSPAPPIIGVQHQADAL
Experimental: The stably transfected 5‐HT2C receptor HEK293 cell line was prepared using a nucleus‐cytoplasm‐membrane preparation kit (Applagin Technologies Inc.). Briefly, cells were harvested at 4°C, 110 00 × g and centrifugation for 5 min. Homogenize pellets in the assay buffer (50 mM Tris‐HCl buffer containing 120 mM NaCl and 5 mM KCl, pH 7.4) and then centrifuged twice at 4°C, 36,000 × g for 15 min. Finally, pellets were re‐suspended in assay buffer and stored it at −80°C until it is used for in vitro experiments.
Receptor membrane protein, MT1 or MT2 (10 μl), was added to all pipes. Non‐specific binding was determined by the presence of unlabeled 10 µM melatonin and pre‐reacted for 30 min. In test tubes, 30 μl of test drugs (MT1: concentration, 10^−4–10^−10 M; MT2: concentration, 10^−4–10^−11 M) was added. Additionally, 40 μl [^3H]‐melatonin was added to all tubes. The volume in all reaction tubes was made up to 300 μl with Tris‐HCl buffer (50 mM, pH 7.4). Reactions were performed at 25°C for 1 h. The mixture was then spotted onto a type 49 glass fiber filter paper, suction filtered under vacuum, rinsed three times with 2 ml ice‐cold Tris‐HCl buffer (50 mM, pH 7.4), and dried by suction. […] Finally, 1 ml of scintillation fluid was added and then the radioactive intensity measured by liquid scintillation counting.

[2] = biological target: T2, MT1 receptor (Homo sapiens, UniProt P48039); test: [35S]‐GTPγS binding assay, MT1; assay type: biochemical
T2 construct: purchased Perkin‐Elmer ES‐620
Experimental: (§1) This experiment was mentioned earlier. ^27 In short, HEK293 cell membrane stably expressing human 5‐HT2C receptors or rat hippocampal tissue membrane or MT1/MT2 receptors was re‐suspended in buffer (50 mmol/L Tris, 100 mmol/L NaCl, 5 mmol/L MgCl2·6H2O, 0.1 mmol/L EDTA‐Na2·6H2O, 0.2 mmol/L EGTA, pH 7.4) and incubated with the test compound (100 μM GDP, 0.2 nM [^35S]‐GTP, or [^3H]PIP) for 60 min at 28℃. At the end of the experiment, Whatman GF/C filters pre‐soaked with distilled water were used for rapid filtration followed by washing with 5 ml of ice‐cold Tris buffer. Determination of non‐specific binding in the presence of GTPγS and radioactivity was measured by liquid scintillation counting. Calculation of the concentration produces a half‐maximal effect (EC50) and the maximal increase above the baseline value.

[3] = biological target: T1, MT2 receptor; test: [35S]‐GTPγS binding assay, MT2; assay type: biochemical
Experimental: as §1

[4] = tested on: mice; test: Locomotor activity in mice; assay type: in vivo, ICR mice; conditions: for Locomotor activity, Crossing number / Locomotor activity, Rearing number: Mice, mean ± S.E.M.
Experimental: In order to confirm whether GW117 has an antidepressant activity, we used spontaneous activities in mice and rats to determine whether GW117 affects the central system. 64 ICR mice were randomly allocation to five therapy groups ([…]): control group, 5 mg/kg GW117, 10 mg/kg GW117, 20 mg/kg GW117, and 40 mg/kg GW117. All rats and mice received one administration (p.o.). After sixty minutes of gavage administration, each mouse or rat was located in the corner of an open field chamber (36 × 29 × 23 cm for mice; 76 × 76 × 46 cm for rats) to adapt to 5 min. The numbers of crossings and rearings were recorded during the subsequent 5 min.

[5] = tested on: CUS rats; test: Novelty‐suppressed feeding test in the CUS model; assay type: in vivo; conditions: chronic, 5, 10, 20 and 40 mg/kg, vs. vehicle‐stressed rats
Experimental: In order to further examine the antidepressant effects of GW117, chronic unpredictable stress (CUS) model was utilized; the methods were as described before. ^29 , ^31 After 1 week of training, rats underwent sucrose training of 48 h. After training, a sucrose baseline test was performed. […] Gastric gavage was given 1 h before the stress (08:00–09:00). Except for the non‐stressed group, all rats were stimulated by a series of stressors. stress methods included the following: fast on food and water (24 h), moisture cage (150 g sawdust bedding in 200 ml water), overnight illumination, low‐intensity strobe illumination (100 flashes/min), forced swimming (5 min at 10℃), white noise (110 dB), tail pinch (1 cm from tail root, 6 min), 45℃ cage tilt, and restraint (1–2 h). Stressors need to be used continuously and randomly. Non‐stressed rats received free food and water, but were required to fast for 14 h before sucrose preference test. After 4 weeks of stress, the sucrose preference test (SPT) (on day 25), open field test (OFT) (on day 28), and novelty‐suppressed feeding (NSF) test (on day 29) were carried out. […]

T2 sequence (P48039 whole entry): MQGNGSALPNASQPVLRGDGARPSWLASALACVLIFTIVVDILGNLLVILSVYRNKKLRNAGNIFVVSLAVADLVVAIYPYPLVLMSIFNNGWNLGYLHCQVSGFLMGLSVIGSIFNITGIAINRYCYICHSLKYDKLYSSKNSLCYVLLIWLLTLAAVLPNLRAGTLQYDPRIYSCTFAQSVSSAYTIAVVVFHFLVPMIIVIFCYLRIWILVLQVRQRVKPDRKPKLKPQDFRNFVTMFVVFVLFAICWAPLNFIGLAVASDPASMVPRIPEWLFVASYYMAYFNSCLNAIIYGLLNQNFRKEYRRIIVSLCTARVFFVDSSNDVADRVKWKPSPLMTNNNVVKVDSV

For `[2H]C([2H])([2H])Oc1cc2c(CCNC(C)=O)cccc2cc1Cl` [GW117], the Ki [1] was 54 ± 7.31 nM, the “character of effect on MT1 receptor” value ([2]; [35S]‐GTPγS binding) was “full agonist” and the Emax ([2]; [35S]‐GTPγS binding, read-out: maximal increase over basal binding (% Emax), MT1 receptor) was 104 ± 7.34%. The EC50 ([2]; read-out: EC50 of stimulation of specific [35S]‐GTPγS binding, MT1 receptor) was 2.49 nM, the “character of effect on MT2 receptor” value ([3]; [35S]‐GTPγS binding) was “full agonist” and the Emax ([3]; [35S]‐GTPγS binding, read-out: maximal increase over basal binding (% Emax), MT2 receptor) was 103 ± 4.56%. The EC50 ([3]; read-out: EC50 of stimulation of specific [35S]‐GTPγS binding, MT2 receptor) was 1.54 nM, the “Locomotor activity, Crossing number” value ([4]; 5 mg/kg p.o.) was 86.8 ± 4.4 and the “Locomotor activity, Rearing number” value ([4]; 5 mg/kg p.o.) was 22.7 ± 1.8. For the same molecule, the “Locomotor activity, Crossing number” value ([4]; 10 mg/kg p.o.) was 80.1 ± 4.8, the “Locomotor activity, Rearing number” value ([4]; 10 mg/kg p.o.) was 22.6 ± 2.1 and the “Locomotor activity, Rearing number” value ([4]; 20 mg/kg p.o.) was 20.7 ± 1.5. For the same molecule, the “Locomotor activity, Crossing number” value ([4]; 40 mg/kg p.o.) was 86.3 ± 4.4, the “Locomotor activity, Rearing number” value ([4]; 40 mg/kg p.o.) was 21.3 ± 1.4 and the “effect on number of crossings and rearings in the spontaneous activity test” value ([4]; mice, 5, 10, 20, or 40 mg/kg by gavage) was “had no effect”. The “latency to begin eating” value [5] was “significantly reduced the latency to begin eating”.
